The text below walks through data of patent EP3820574B1, “3-(5-AMINO-1-OXOISOINDOLIN-2-YL)PIPERIDINE-2,6-DIONE DERIVATIVES AND THEIR USE IN THE TREATMENT OF IKAROS FAMILY ZINC FINGER 2 (IKZF2)-DEPENDENT DISEASES” (Novartis AG, priority 2018, dated 2020).

One assay concerns the target GSPT1 (Homo sapiens, UniProt P15170+Q96SW2). As to conditions: read-out: GSPT1 EC50; GSPT1 degradation, prolabel-tagged fusion protein in 293GT cells; highest concentration 50 µM.
The target in the next assay is IKZF1 (Homo sapiens, UniProt Q13422+Q96SW2). In words: Prolabel quantification of IKZF1 protein levels in 293GT cells. Particulars: read-out: IKZF1 EC50; Ikaros (IKZF1) degradation, prolabel-tagged fusion protein in 293GT cells; highest concentration 50 µM.
Another assay has as its target IKZF2 (Homo sapiens, UniProt Q96SW2+Q9UKS7). In words: Prolabel quantification of IKZF2 protein levels in 293GT cells. Particulars: for DC50: read-out: IKZF2 EC50, Helios (IKZF2) degradation, prolabel-tagged fusion protein in 293GT cells, highest concentration 50 µM; for inhibition at 10 µM: read-out: IKZF2 % protein reduction at 10 µM, 24 h.

Sequence of GSPT1 (P15170 whole entry, the tested form may be a part): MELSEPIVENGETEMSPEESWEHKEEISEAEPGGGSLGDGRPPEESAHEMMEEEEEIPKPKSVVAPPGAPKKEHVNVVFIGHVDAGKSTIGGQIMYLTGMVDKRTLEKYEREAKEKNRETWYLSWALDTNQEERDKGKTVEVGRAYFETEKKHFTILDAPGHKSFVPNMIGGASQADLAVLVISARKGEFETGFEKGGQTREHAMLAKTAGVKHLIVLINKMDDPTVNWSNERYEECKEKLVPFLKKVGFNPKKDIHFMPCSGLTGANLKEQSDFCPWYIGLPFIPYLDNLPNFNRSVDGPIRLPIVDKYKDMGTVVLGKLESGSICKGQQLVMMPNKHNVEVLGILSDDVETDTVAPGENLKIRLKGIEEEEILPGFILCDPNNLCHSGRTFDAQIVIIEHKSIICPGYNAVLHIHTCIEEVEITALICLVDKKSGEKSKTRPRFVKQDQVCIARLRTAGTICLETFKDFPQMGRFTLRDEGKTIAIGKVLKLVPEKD
Sequence of GSPT1 (Q96SW2 whole entry, the tested form may be a part): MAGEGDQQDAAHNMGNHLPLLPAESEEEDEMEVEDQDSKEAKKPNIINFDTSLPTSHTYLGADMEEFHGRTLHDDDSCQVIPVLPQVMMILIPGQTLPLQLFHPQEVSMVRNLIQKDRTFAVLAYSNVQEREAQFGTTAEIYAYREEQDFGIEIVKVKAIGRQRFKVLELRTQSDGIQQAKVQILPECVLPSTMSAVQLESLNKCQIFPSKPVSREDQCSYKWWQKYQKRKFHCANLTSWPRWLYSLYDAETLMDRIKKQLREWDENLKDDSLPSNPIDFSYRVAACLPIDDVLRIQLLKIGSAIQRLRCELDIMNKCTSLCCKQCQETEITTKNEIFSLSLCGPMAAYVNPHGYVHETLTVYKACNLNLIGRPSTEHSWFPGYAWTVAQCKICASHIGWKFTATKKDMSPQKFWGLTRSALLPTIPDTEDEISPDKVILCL
Sequence of GSPT1 (Q16531 whole entry partner, the tested form may be a part): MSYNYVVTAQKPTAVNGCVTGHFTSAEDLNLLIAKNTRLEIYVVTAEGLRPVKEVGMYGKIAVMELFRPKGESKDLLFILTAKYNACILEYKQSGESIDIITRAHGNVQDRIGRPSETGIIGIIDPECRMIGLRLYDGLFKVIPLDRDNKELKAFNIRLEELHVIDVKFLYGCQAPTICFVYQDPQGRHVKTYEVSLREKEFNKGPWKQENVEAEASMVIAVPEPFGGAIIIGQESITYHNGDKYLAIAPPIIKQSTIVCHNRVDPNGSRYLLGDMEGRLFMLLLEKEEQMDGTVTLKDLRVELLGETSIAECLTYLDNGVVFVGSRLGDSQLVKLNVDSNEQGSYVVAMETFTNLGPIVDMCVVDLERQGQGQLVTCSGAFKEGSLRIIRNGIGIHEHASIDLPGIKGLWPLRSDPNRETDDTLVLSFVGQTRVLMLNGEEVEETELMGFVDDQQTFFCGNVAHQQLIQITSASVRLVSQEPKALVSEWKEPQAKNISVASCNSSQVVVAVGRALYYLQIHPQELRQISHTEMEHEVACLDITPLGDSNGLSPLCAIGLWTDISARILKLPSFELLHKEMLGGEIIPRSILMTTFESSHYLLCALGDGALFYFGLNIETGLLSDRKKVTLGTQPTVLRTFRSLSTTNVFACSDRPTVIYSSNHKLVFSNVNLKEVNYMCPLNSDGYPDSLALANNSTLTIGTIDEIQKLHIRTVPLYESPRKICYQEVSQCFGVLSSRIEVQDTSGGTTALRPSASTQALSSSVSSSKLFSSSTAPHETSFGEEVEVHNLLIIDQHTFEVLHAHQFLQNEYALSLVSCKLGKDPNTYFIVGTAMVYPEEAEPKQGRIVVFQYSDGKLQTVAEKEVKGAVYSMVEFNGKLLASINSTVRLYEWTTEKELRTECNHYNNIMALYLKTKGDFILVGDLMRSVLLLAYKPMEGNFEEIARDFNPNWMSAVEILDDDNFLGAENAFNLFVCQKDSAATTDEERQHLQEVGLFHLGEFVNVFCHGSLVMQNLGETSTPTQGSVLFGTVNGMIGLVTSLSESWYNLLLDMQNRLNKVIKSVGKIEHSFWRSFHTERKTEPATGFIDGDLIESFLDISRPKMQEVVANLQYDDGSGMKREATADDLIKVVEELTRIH
Sequence of IKZF2 (Q9UKS7 whole entry, the tested form may be a part): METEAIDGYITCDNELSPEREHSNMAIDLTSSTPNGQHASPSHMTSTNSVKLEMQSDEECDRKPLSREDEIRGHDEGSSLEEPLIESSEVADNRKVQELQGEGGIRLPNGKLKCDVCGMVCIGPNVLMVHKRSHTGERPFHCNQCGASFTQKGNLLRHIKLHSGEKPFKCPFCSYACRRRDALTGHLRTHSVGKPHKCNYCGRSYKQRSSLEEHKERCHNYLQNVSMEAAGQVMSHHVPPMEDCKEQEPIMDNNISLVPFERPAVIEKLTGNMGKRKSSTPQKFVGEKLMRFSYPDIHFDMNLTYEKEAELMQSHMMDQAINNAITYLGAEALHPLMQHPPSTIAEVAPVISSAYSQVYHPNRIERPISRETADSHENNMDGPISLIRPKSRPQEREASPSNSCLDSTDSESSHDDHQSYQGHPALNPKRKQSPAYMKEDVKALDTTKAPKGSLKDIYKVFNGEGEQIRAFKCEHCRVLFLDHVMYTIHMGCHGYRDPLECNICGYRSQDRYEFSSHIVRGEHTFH
Sequence of IKZF2 (Q96SW2 whole entry, the tested form may be a part): as the sequence (Q96SW2 whole entry, the tested form may be a part) above
Sequence of IKZF2 (Q16531 whole entry partner, the tested form may be a part): as the sequence (Q16531 whole entry partner, the tested form may be a part) above
Sequence of IKZF1 (Q13422 whole entry, the tested form may be a part): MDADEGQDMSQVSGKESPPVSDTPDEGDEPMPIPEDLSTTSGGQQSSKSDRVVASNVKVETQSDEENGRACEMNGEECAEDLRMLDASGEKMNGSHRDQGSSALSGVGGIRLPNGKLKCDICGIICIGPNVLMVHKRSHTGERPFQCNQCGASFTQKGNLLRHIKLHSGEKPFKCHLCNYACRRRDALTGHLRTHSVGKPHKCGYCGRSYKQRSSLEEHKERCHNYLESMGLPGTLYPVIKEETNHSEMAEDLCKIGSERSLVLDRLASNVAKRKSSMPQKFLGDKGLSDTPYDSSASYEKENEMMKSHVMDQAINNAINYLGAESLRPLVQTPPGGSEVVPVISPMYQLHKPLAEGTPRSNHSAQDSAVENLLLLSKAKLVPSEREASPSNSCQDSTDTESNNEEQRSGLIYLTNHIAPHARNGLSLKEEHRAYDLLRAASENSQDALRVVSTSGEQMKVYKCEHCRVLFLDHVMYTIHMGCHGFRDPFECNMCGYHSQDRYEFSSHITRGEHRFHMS
Sequence of IKZF1 (Q96SW2 whole entry, the tested form may be a part): as the sequence (Q96SW2 whole entry, the tested form may be a part) above
Sequence of IKZF1 (Q16531 whole entry partner, the tested form may be a part): as the sequence (Q16531 whole entry partner, the tested form may be a part) above
Procedure for GSPT1: (§1) The Prolabel system from DiscoverX was used to develop high-throughput and quantitative assays to measure changes in IKZF1, IKZF2, and GSPT1 protein levels in response to compounds. […] The complementary fragment of beta-galactosidase (from DiscoverX), is added to the prolabel tag to form an active beta galactosidase enzyme whose activity can be precisely measured. In this way, the levels of a fusion protein with the prolabel tag can be quantified in cell lysates.
(§2) Lentiviral vectors, based on the Invitrogen pLenti6.2/V5 DEST backbone, were constructed that placed the prolabel tag upstream of IKZF1, IKZF2, or GSPT1 and expressed the fusion protein from a CMV promoter.
(§3) To ensure moderate and consistent expression of the prolabel fusion proteins across all cells in the population, stable cell lines were constructed from cells expressing a single copy of the construct. Lentivirus packaged with the constructs was made using the Virapower kit from Invitrogen.
(§4) The levels of prolabel tagged fusion proteins in compound treated cell lines were measured as follows: • Day 1, Cells were diluted to 1.0 x 10^6 cells/ml in normal growth medium. 17.5 µL of cells were plated in each well of a solid white 384 well plate. Plates were incubated overnight in a 37 °C tissue culture incubator. • Day 2, Serial dilutions of compounds were made in 384 well plates from 10 mM stocks. 15 µL of DMSO was added to each well of a 384 well plate. In the first column 15µL of stock compound was added. The solution was mixed and 15 µL was transferred to the next column. This was repeated until 20 two-fold dilutions were prepared. 2.5 µL of diluted compounds were transferred into 60 µL of cell culture medium in another 384 well plate, and mixed well. 2.5 µL of this mixture was added to the plated cells. The final DMSO concentration was 0.5% and the highest concentration of compound was 50 µM. Plates were incubated overnight (e.g., about 14 h, 18 h, or 24 h) in a 37 °C tissue culture incubator. • Day 3, Plates were removed from the incubator and allowed to equilibrate at rt for 30 minutes. Prolabel substrate (DiscoverX PathHunter Prolabel Detection Kit, User manual: 93-0180) was added as described by the manufacturers protocols. Plates were incubated at rt for three hours and luminescence was read using an Envision reader (Perkin Elmer) Data was analyzed and visualized using the Spotfire software package.
Procedure for IKZF1: as §1, §2, §3, §4
Procedure for IKZF2: as §1, §2, §3, §4

`CN[C@@H]1CCCC[C@H]1N(C)c1ccc2c(c1)CN(C1CCC(=O)NC1=O)C2=O` (relative stereo) [Compound I-9, trans-3-(5-(methyl(-2-(methylamino)cyclohexyl)amino)-1-oxoisoindolin-2-yl)piperidine-2,6-dione]: the DC50 at GSPT1 is more than 50 µM; on IKZF1 it was more than 50 µM; on IKZF2, 0.113 µM. Besides, the “IKZF2 % protein reduction at 10 µM, 24 h” value on IKZF2 (10 µM, 24 h, 293GT cells) came to 65%.

Consider `O=C1CCC(N2Cc3cc(N[C@H]4CCCC[C@@H]4O)ccc3C2=O)C(=O)N1` (stereo partly drawn) [Compound I-1, 3-(5-(((1S,2S)-2-hydroxycyclohexyl)amino)-1-oxoisoindolin-2-yl)piperidine-2,6-dione], for which the DC50 at GSPT1 and at IKZF1 was more than 30 µM in each case. The inhibition at 10 µM at IKZF2 (24 h) stood at 20%.

With `CN[C@@H]1CCCC[C@H]1N(C)c1ccc2c(c1)CN(C1CCC(=O)NC1=O)C2=O` (stereo partly drawn) [Compound I-2, 3-(5-(methyl((1R,2R)-2-(methylamino)cyclohexyl)amino)-1-oxoisoindolin-2-yl)piperidine-2,6-dione], the DC50 at GSPT1, on IKZF1 and on IKZF2 was more than 30 µM each time. Besides, the inhibition at 10 µM at IKZF2 (24 h) came to 0%.

Take `O=C1CCC(N2Cc3cc(N[C@H]4CCCC[C@@H]4NCc4ccccc4)ccc3C2=O)C(=O)N1` (stereo partly drawn) [Compound I-3, 3-(5-(((1S,2S)-2-(benzylamino)cyclohexyl)amino)-1-oxoisoindolin-2-yl)piperidine-2,6-dione]: the values for the DC50 at GSPT1, at IKZF1 and at IKZF2 were more than 30 µM, more than 30 µM and 0.029 µM, respectively. Moreover, at IKZF2 (24 h), the inhibition at 10 µM came to 65%.

On to `O=C1CCC(N2Cc3cc(N[C@H]4CCCC[C@@H]4OCc4ccccc4)ccc3C2=O)C(=O)N1` (stereo partly drawn) [Compound I-4, 3-(5-(((1S,2S)-2-(benzyloxy)cyclohexyl)amino)-1-oxoisoindolin-2-yl)piperidine-2,6-dione], for which, on GSPT1, the DC50 was more than 30 µM.

Take `CN(Cc1ccccc1)[C@H]1CCCC[C@@H]1N(C)c1ccc2c(c1)CN(C1CCC(=O)NC1=O)C2=O` (stereo partly drawn) [Compound I-6, 3-(5-(((1S,2S)-2-(benzyl(methyl)amino)cyclohexyl)(methyl)amino)-1-oxoisoindolin-2-yl)piperidine-2,6-dione]: the figures for the DC50 on IKZF1 and at IKZF2 were more than 50 µM and 0.043 µM, respectively. For the same compound, the inhibition at 10 µM at IKZF2 (24 h) stood at 65%.

Take `N[C@H]1CCCC[C@@H]1Nc1ccc2c(c1)CN(C1CCC(=O)NC1=O)C2=O` (stereo partly drawn) [Compound I-7, 3-(5-(((1S,2S)-2-aminocyclohexyl)amino)-1-oxoisoindolin-2-yl)piperidine-2,6-dione]: the figures for the DC50 at IKZF1 and at IKZF2 were more than 50 µM and 0.183 µM, respectively. At IKZF2 (24 h), the inhibition at 10 µM was determined as 30%.

As to `CN[C@H]1CCCC[C@@H]1N(C)c1ccc2c(c1)CN(C1CCC(=O)NC1=O)C2=O` (stereo partly drawn) [Compound I-8, 3-(5-(methyl((1S,2S)-2-(methylamino)cyclohexyl)amino)-1-oxoisoindolin-2-yl)piperidine-2,6-dione], the DC50 on GSPT1 is more than 50 µM; on IKZF1, more than 50 µM; at IKZF2 it was 0.103 µM. Moreover, the inhibition at 10 µM on IKZF2 (24 h) is 65%.

Take `CN[C@H]1CCCC[C@@H]1Nc1ccc2c(c1)CN(C1CCC(=O)NC1=O)C2=O` (stereo partly drawn) [Compound I-10, 3-(5-(((1S,2S)-2-(methylamino)cyclohexyl)amino)-1-oxoisoindolin-2-yl)piperidine-2,6-dione]: the DC50 was more than 50 µM on GSPT1, more than 30 µM at IKZF1 and 0.99 µM on IKZF2. For the same compound, the inhibition at 10 µM on IKZF2 (24 h) came to 50%.

Regarding `O=C1CCC(N2Cc3cc(N[C@H]4CCCC[C@@H]4NCC4CCCCC4)ccc3C2=O)C(=O)N1` (stereo partly drawn) [Compound I-12, 3-(5-(((1S,2S)-2-((cyclohexylmethyl)amino)cyclohexyl)amino)-1-oxoisoindolin-2-yl)piperidine-2,6-dione], the results for the DC50 at IKZF1 and at IKZF2 were more than 30 µM and 0.036 µM, respectively. In addition, the inhibition at 10 µM at IKZF2 (24 h) was determined as 65%.

As to `O=C1CCC(N2Cc3cc(N[C@H]4CCC[C@@H]4N4CCCCC4)ccc3C2=O)C(=O)N1` (stereo partly drawn) [Compound I-14, 3-(1-oxo-5-(((1S,2S)-2-(piperidin-1-yl)cyclopentyl)amino)isoindolin-2-yl)piperidine-2,6-dione], the DC50 at IKZF1 is more than 30 µM; on IKZF2, 0.73 µM. On IKZF2 (24 h), the inhibition at 10 µM worked out at 40%.

For `CC(C)CN[C@H]1CCCC[C@@H]1Nc1ccc2c(c1)CN(C1CCC(=O)NC1=O)C2=O` (stereo partly drawn) [Compound I-15, 3-(5-(((1S,2S)-2-(isobutylamino)cyclohexyl)amino)-1-oxoisoindolin-2-yl)piperidine-2,6-dione], the DC50 on IKZF1 is more than 30 µM; on IKZF2, 0.094 µM. Further, the inhibition at 10 µM on IKZF2 (24 h) turned out to be 60%.

With `CCN[C@H]1CCCC[C@@H]1Nc1ccc2c(c1)CN(C1CCC(=O)NC1=O)C2=O` (stereo partly drawn) [Compound I-40, 3-(5-(((1S,2S)-2-(ethylamino)cyclohexyl)amino)-1-oxoisoindolin-2-yl)piperidine-2,6-dione], the figures for the DC50 at IKZF1 and at IKZF2 were more than 30 µM and 1.67 µM, respectively. The inhibition at 10 µM on IKZF2 (24 h) is 45%.

For `CC(C)N[C@H]1CCCC[C@@H]1Nc1ccc2c(c1)CN(C1CCC(=O)NC1=O)C2=O` (stereo partly drawn) [Compound I-45, 3-(5-(((1S,2S)-2-(isopropylamino)cyclohexyl)amino)-1-oxoisoindolin-2-yl)piperidine-2,6-dione], the DC50 on GSPT1 was more than 50 µM; on IKZF1, more than 30 µM; on IKZF2, 0.1 µM. Moreover, the inhibition at 10 µM at IKZF2 (24 h) amounted to 70%.

For `CCN[C@H]1CCCC[C@@H]1N(CC)c1ccc2c(c1)CN(C1CCC(=O)NC1=O)C2=O` (stereo partly drawn) [Compound I-55, 3-(5-(ethyl((1S,2S)-2-(ethylamino)cyclohexyl)amino)-1-oxoisoindolin-2-yl)piperidine-2,6-dione], at IKZF1, the DC50 is more than 30 µM. Also, the inhibition at 10 µM on IKZF2 (24 h) is 10%.

Take `CN(C)[C@H]1CCCC[C@@H]1N(C)c1ccc2c(c1)C(=O)N(C1CCC(=O)NC1=O)C2=O` (stereo partly drawn) [Compound I-96, 5-(((1S,2S)-2-(dimethylamino)cyclohexyl)(methyl)amino)-2-(2,6-dioxopiperidin-3-yl)isoindoline-1,3-dione]: the results for the DC50 at GSPT1, on IKZF1 and on IKZF2 were more than 50 µM, 2.37 µM and 1.57 µM, respectively. Further, the inhibition at 10 µM on IKZF2 (24 h) came to 50%.

For `CN(c1ccc2c(c1)C(=O)N(C1CCC(=O)NC1=O)C2=O)[C@H]1CCCC[C@@H]1N` (stereo partly drawn) [Compound I-99, 5-(((1S,2S)-2-aminocyclohexyl)(methyl)amino)-2-(2,6-dioxopiperidin-3-yl)isoindoline-1,3-dione], the DC50 at GSPT1 was more than 50 µM; on IKZF1 it was 5.2 µM; on IKZF2, 0.15 µM. Further, the inhibition at 10 µM on IKZF2 (24 h) amounted to 70%.

As for `CCN[C@H]1CCCC[C@@H]1N(C)c1ccc2c(c1)C(=O)N(C1CCC(=O)NC1=O)C2=O` (stereo partly drawn) [Compound I-104, 2-(2,6-dioxopiperidin-3-yl)-5-(((1S,2S)-2-(ethylamino)cyclohexyl)(methyl)amino)isoindoline-1,3-dione], the DC50 at GSPT1 is more than 50 µM; at IKZF1, 0.051 µM; on IKZF2, 0.049 µM. The inhibition at 10 µM at IKZF2 (24 h) came out at 80%.

In the case of `CN[C@H]1CCC[C@@H]1N(C)c1ccc2c(c1)C(=O)N(C1CCC(=O)NC1=O)C2=O` (stereo partly drawn) [Compound I-128, 2-(2,6-dioxopiperidin-3-yl)-5-(methyl((1S,2S)-2-(methylamino)cyclopentyl)amino) isoindoline-1,3-dione], the DC50 on IKZF1 and on IKZF2 was more than 30 µM throughout. Besides, on IKZF2 (24 h), the inhibition at 10 µM was 30%.

With `CN(c1ccc2c(c1)C(=O)N(C1CCC(=O)NC1=O)C2=O)[C@H]1CCCC[C@@H]1NCc1ccccc1` (stereo partly drawn) [Compound I-133, 5-(((1S,2S)-2-(benzylamino)cyclohexyl)(methyl)amino)-2-(2,6-dioxopiperidin-3-yl)isoindoline-1,3-dione], the DC50 is more than 30 µM at IKZF1 and 0.45 µM on IKZF2. Besides, the inhibition at 10 µM at IKZF2 (24 h) turned out to be 75%.

Regarding `CN(c1ccc2c(c1)C(=O)N(C1CCC(=O)NC1=O)C2=O)[C@H]1CCCC[C@@H]1NCC1(C(F)(F)F)CC1` (stereo partly drawn) [Compound I-138, 2-(2,6-dioxopiperidin-3-yl)-5-(methyl((1S,2S)-2-(((1-(trifluoromethyl)cyclopropyl)methyl)amino)cyclohexyl)amino)isoindoline-1,3-dione], the DC50 on IKZF1 was more than 30 µM. In addition, on IKZF2 (24 h), the inhibition at 10 µM came out at 30%.

`CN(c1ccc2c(c1)C(=O)N(C1CCC(=O)NC1=O)C2=O)[C@H]1CCCC[C@@H]1NCc1cccnc1` (stereo partly drawn) [Compound I-143, 2-(2,6-dioxopiperidin-3-yl)-5-(methyl((1S,2S)-2-((pyridin-3-ylmethyl)amino)cyclohexyl)amino)isoindoline-1,3-dione]: the DC50 at IKZF1 is more than 30 µM; on IKZF2, 23.1 µM. On IKZF2 (24 h), the inhibition at 10 µM came out at 40%.

Take `CN(c1ccc2c(c1)C(=O)N(C1CCC(=O)NC1=O)C2=O)[C@H]1CCCC[C@@H]1NCC(=O)O` (stereo partly drawn) [Compound I-148, ((1S,2S)-2-((2-(2,6-dioxopiperidin-3-yl)-1,3-dioxoisoindolin-5-yl)(methyl)amino)cyclohexyl)glycine]: the DC50 at IKZF1 is more than 30 µM; at IKZF2, 11.3 µM. For the same compound, the inhibition at 10 µM on IKZF2 (24 h) was determined as 40%.

Consider `CN[C@H]1CCCC[C@@H]1N(C)c1ccc2c(c1F)CN(C1CCC(=O)NC1=O)C2=O` (stereo partly drawn) [Compound I-163, 3-(4-fluoro-5-(methyl((1S,2S)-2-(methylamino)cyclohexyl)amino)-1-oxoisoindolin-2-yl)piperidine-2,6-dione], for which the DC50 on IKZF1 was determined as 0.57 µM; at IKZF2 it was 0.066 µM. On IKZF2 (24 h), the inhibition at 10 µM came out at 80%.
